Data taken from ChEMBL document CHEMBL1143543, “Potent 1,3,4-trisubstituted pyrrolidine CCR5 receptor antagonists: effects of fused heterocycles on antiviral activity and pharmacokinetic properties” (Bioorg Med Chem Lett, 2005).
pIC50: −log10 of the molar value.

Legend:
[1] = test system: Human immunodeficiency virus 1; assay: Antiinfective activity in HeLa cells against HIV-1(BAL) in the absence of 50% of human serum; format: functional; conditions: Human immunodeficiency virus 1, HeLa
[2] = target: C-C chemokine receptor type 5 (Homo sapiens, UniProt P51681); assay: Displacement of [125I]-MIP-1 alpha from human C-C chemokine receptor type 5 expressed on CHO cell membranes
Sequence of C-C chemokine receptor type 5 (P51681 whole entry): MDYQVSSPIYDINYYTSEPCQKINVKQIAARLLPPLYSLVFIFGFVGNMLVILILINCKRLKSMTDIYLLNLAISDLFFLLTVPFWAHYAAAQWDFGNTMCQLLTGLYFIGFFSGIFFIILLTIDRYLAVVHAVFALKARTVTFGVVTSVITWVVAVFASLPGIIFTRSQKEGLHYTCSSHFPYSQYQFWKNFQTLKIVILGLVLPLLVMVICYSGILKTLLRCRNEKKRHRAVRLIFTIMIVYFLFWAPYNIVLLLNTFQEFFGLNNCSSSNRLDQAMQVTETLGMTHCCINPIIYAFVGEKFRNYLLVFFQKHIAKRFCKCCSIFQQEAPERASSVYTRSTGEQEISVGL

[3] = Inhibitory concentration against PBM cells; format: functional; conditions: PBMC
[4] = test system: Human immunodeficiency virus 1; assay: Antiinfective activity in HeLa cells against HIV-1(BAL) in the presence of 50% of human serum; format: functional; conditions: Human immunodeficiency virus 1, HeLa
[5] = Bioavailability in rat; format: ADME, organism-based; conditions: in vivo
[6] = Half life in rat; format: ADME; conditions: in vivo
[7] = Plasma clearance in rat; format: ADME, organism-based; conditions: read-out: Clp
[8] = Oral bioavailability in rat; format: ADME, organism-based; conditions: in vivo
[9] = target: Voltage-gated inwardly rectifying potassium channel KCNH2 (Homo sapiens, UniProt Q12809); assay: Inhibitory activity against human Potassium channel HERG
Sequence of Voltage-gated inwardly rectifying potassium channel KCNH2 (Q12809 whole entry): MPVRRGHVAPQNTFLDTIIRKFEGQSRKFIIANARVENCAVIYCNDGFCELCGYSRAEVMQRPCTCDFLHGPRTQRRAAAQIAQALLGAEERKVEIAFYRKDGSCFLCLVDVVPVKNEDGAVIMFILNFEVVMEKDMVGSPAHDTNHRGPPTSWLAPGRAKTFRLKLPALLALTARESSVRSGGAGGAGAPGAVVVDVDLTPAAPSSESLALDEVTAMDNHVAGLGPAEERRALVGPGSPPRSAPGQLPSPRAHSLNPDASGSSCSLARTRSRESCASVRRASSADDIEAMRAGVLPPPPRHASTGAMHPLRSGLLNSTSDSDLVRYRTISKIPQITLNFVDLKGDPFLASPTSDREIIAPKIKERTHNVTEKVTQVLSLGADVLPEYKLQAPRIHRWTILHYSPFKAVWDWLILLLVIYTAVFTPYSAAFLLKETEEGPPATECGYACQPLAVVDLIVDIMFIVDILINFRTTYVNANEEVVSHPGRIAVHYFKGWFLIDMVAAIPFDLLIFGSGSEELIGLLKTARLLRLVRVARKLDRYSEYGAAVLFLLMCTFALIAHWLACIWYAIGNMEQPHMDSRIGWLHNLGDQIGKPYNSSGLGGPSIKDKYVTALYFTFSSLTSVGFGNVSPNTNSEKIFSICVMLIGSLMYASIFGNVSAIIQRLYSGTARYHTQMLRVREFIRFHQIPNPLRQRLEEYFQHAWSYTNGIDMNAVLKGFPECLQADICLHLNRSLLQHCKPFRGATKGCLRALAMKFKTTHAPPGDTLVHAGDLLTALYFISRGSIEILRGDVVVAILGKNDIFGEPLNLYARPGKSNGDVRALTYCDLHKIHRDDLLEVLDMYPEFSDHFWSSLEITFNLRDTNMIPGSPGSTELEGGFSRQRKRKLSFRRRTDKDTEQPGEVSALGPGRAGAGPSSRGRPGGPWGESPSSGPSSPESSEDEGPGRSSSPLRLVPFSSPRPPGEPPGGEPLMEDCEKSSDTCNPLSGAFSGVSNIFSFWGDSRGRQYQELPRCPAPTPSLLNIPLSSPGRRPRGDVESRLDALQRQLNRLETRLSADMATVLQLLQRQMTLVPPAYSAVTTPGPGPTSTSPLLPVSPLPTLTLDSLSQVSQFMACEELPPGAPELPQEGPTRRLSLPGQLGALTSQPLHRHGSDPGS

[10] = target: Voltage-gated L-type calcium channel (Homo sapiens, UniProt Q13936+Q13698+Q01668+O60840); assay: Inhibitory concentration against L-type [Ca2+] channel; format: protein assay

SMILES	IC90 [1] [nM]	pIC50 [2]	IC90 [4] [nM]	further results
O=C(O)[C@@H](C1CCCCC1)N1C[C@H](CN2CCC(n3cnc4cccnc43)CC2)[C@@H](c2ccccc2)C1	33	8.55		
O=C(O)[C@@H](CC1CCC1)N1C[C@H](CN2CCC(CCCc3ccccc3)CC2)[C@@H](c2ccccc2)C1				IC95 [3]: < 8 nM
O=C(O)[C@@H](CC1CCC1)N1C[C@H](CN2CCC(c3cnc4cccnn34)CC2)[C@@H](c2cccc(F)c2)C1	11	8.52	300	
O=C(O)[C@@H](CC1CCC1)N1C[C@H](CN2CCC(c3cn4ccccc4n3)CC2)[C@@H](c2cccc(F)c2)C1		7.19		
O=C(O)[C@@H](CC1CCC1)N1C[C@H](CN2CCC(c3cnc4c(Cl)cc(Cl)cn34)CC2)[C@@H](c2cccc(F)c2)C1	33	9.30	300	bioavailability [5]: 39%; half-life [6]: 24 min; clearance [7]: 20 mL/min/kg
O=C(O)[C@@H](CC1CCC1)N1C[C@H](CN2CCC(c3cn4cccnc4n3)CC2)[C@@H](c2ccccc2)C1		6.70		
CCc1ccn2c(C3CCN(C[C@H]4CN([C@H](CC5CCC5)C(=O)O)C[C@@H]4c4cccc(F)c4)CC3)cnc2c1	0.13	9.46	11	bioavailability [5]: 11%; half-life [6]: 150 min; clearance [7]: 67 mL/min/kg
O=C(O)[C@@H](CC1CCC1)N1C[C@H](CN2CCC(c3nnc4ccccn34)CC2)[C@@H](c2ccccc2)C1	100	7.92	> 300	
O=C(O)[C@@H](C1CCCCC1)N1C[C@H](CN2CCC(n3cnc4ccccc43)CC2)[C@@H](c2ccccc2)C1	11	8.60	100	bioavailability [8]: < 2%
O=C(O)[C@@H](CC1CCC1)N1C[C@H](CN2CCC(c3cnc4ccc(C(F)(F)F)cn34)CC2)[C@@H](c2cccc(F)c2)C1	11	9.09	300	bioavailability [5]: 26%; pIC50 [9]: > 5.00; half-life [6]: 48 min; clearance [7]: 18 mL/min/kg; IC50 [10]: > 10000 nM
O=C(O)[C@@H](C1CCCCC1)N1C[C@H](CN2CCC(c3c[nH]c4ccccc34)CC2)[C@@H](c2ccccc2)C1		8.00		
O=C(O)[C@@H](CC1CCC1)N1C[C@H](CN2CCC(c3cnc4cnccn34)CC2)[C@@H](c2cccc(F)c2)C1	11	9.00	100	
O=C(O)[C@@H](C1CCCCC1)N1C[C@H](CN2CCC(CCn3cnc4ccccc43)CC2)[C@@H](c2ccccc2)C1	100	8.59	> 300	
O=C(O)[C@@H](CC1CCC1)N1C[C@H](CN2CCC(c3cnc4ccccn34)CC2)[C@@H](c2cccc(F)c2)C1	1.2	9.38	33	bioavailability [5]: 4%; half-life [6]: 126 min; clearance [7]: 38 mL/min/kg; IC50 [10]: > 10000 nM
O=C(O)[C@@H](C1CCCCC1)N1C[C@H](CN2CCC(n3c(=O)[nH]c4ccccc43)CC2)[C@@H](c2ccccc2)C1		7.20		
O=C(O)[C@@H](C1CCCCC1)N1C[C@H](CN2CCC(CCCn3cnc4ccccc43)CC2)[C@@H](c2ccccc2)C1	1.2	9.08	33	bioavailability [8]: < 2%
O=C(O)[C@@H](C1CCCCC1)N1C[C@H](CN2CCC(n3cnc4ncccc43)CC2)[C@@H](c2ccccc2)C1		7.64		
O=C(O)[C@@H](CC1CCC1)N1C[C@H](CN2CCC(c3cnc4ccc(-c5ccccc5)cn34)CC2)[C@@H](c2cccc(F)c2)C1	11	9.10	300	bioavailability [5]: 19%; half-life [6]: 96 min; clearance [7]: 83 mL/min/kg
O=C(O)[C@@H](C1CCCCC1)N1C[C@H](CN2CCC(n3cnc4ccccc4c3=O)CC2)[C@@H](c2ccccc2)C1		7.92		
O=C(O)[C@@H](C1CCCCC1)N1C[C@H](CN2CCC(n3nnc4ccccc43)CC2)[C@@H](c2ccccc2)C1	100	8.09		
O=C(O)[C@@H](CC1CCC1)N1C[C@H](CN2CCC(c3cnc4ccc(F)cn34)CC2)[C@@H](c2cccc(F)c2)C1	3.7	9.52	300	bioavailability [5]: 38%; half-life [6]: 48 min; clearance [7]: 19 mL/min/kg
O=C(O)[C@@H](CC1CCC1)N1C[C@H](CN2CCC(c3cnc4ccc(Cl)cn34)CC2)[C@@H](c2cccc(F)c2)C1	1.2	9.05	100	bioavailability [5]: 26%; half-life [6]: 42 min; clearance [7]: 16 mL/min/kg; IC50 [10]: > 10000 nM
O=C(O)[C@@H](CC1CCC1)N1C[C@H](CN2CCC(c3cn4ccncc4n3)CC2)[C@@H](c2cccc(F)c2)C1	300	7.54	300	
O=C(O)[C@@H](C1CCCCC1)N1C[C@H](CN2CCC(Cn3cnc4ccccc43)CC2)[C@@H](c2ccccc2)C1	100	8.20	> 300	
O=C(O)[C@@H](C1CCCCC1)N1C[C@H](CN2CCC(n3cnc(=O)c4ccccc43)CC2)[C@@H](c2ccccc2)C1		7.00		
Cc1cc(C)n2ncc(C3CCN(C[C@H]4CN([C@H](CC5CCC5)C(=O)O)C[C@@H]4c4cccc(F)c4)CC3)c2n1	> 300	8.15	> 300	
O=C(O)[C@@H](CC1CCC1)N1C[C@H](CN2CCC(c3cnc4ccc([N+](=O)[O-])cn34)CC2)[C@@H](c2cccc(F)c2)C1	100	9.22	300	bioavailability [5]: 61%; half-life [6]: 12 min; clearance [7]: 120 mL/min/kg
O=C(O)[C@@H](CC1CCC1)N1C[C@H](CN2CCC(c3cnc4ncccn34)CC2)[C@@H](c2cccc(F)c2)C1	33	8.46	100	
O=C(O)[C@@H](CC1CCC1)N1C[C@H](CN2CCC(c3ncc4ccccn34)CC2)[C@@H](c2cccc(F)c2)C1	> 300	7.89	> 300	
